Reference: patent publication US10065990B2, “Cyclic peptide compound, and preparation method, pharmaceutical composition and use thereof” (HANGZHOU GUANYU BIO-MEDICAL CO., LTD, priority 2013, dated 2018)
Where two headings read alike, the source gives them in different places.

What was measured:
[1] = target: HDAC2 (Homo sapiens, UniProt Q92769); assay: HDAC biochemical activity measurement (fluorescent substrate deacetylation);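 note: HDAC2 enzyme with an acetyl-lysine fluorescent substrate, then developer added, fluorescence read at excitation 360 nm and emission 460 nm, inhibition measured across several compound concentrations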; details: 37° C. 30 minutes
Chain of HDAC2 (Q92769 whole entry, species assumed): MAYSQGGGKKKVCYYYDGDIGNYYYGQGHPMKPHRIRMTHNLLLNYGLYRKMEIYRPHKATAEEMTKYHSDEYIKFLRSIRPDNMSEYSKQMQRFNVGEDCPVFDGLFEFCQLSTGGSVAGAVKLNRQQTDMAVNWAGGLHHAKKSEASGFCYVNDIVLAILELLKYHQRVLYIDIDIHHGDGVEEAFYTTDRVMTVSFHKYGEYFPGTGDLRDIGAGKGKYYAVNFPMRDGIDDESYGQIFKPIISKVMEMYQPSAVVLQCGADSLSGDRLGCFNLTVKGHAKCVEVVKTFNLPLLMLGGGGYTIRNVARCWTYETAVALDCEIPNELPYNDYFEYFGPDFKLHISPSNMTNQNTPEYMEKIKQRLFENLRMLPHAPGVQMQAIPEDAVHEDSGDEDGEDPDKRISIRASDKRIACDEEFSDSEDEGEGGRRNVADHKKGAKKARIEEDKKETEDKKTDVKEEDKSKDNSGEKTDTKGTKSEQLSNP

[2] = test system: HT1080 (human fibrosarcoma cells); assay: MTT cancer cell growth inhibition; format: cell-based; details: MTT, 72 hours incubation, read-out: GI50 HT1
Method in brief: (§1)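 72 h exposure, final drug 10^−5–10^−10 M, triplicate wells; 1500 cells/well plated the day before; medium DMEM or 1640 + 10% FBS; 37° C./5% CO2. MTT (5 mg/ml stock) 4 h, DMSO solubilisation, A570 → % viability → GI50.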

[3] = test system: Hela (human cervical cancer cells); assay: MTT cancer cell growth inhibition; format: cell-based; details: MTT, 72 hours incubation, read-out: GI50 Hela
Method in brief: as §1

[4] = test system: MDA-MB-231 (breast cancer cells); assay: MTT cancer cell growth inhibition; format: cell-based
Method in brief: as §1

[5] = test system: N-87 (human gastric cancer cells); assay: MTT cancer cell growth inhibition; format: cell-based; details: MTT, 72 hours incubation, N-87 cells, read-out: GI50 N-87
Method in brief: as §1

[6] = test system: U937 (human leukemia cells); assay: MTT cancer cell growth inhibition; format: cell-based; details: MTT, 72 hours incubation, read-out: GI50 U93
Method in brief: as §1

[7] = test system: A549 (human lung cancer cells); assay: MTT cancer cell growth inhibition; format: cell-based; details: MTT, 72 hours incubation, read-out: GI50 A54
Method in brief: as §1

[8] = test system: PANC-1 (Pac-1, human pancreatic cancer cells); assay: MTT cancer cell growth inhibition; format: cell-based; details: MTT, 72 hours incubation, read-out: GI50 PAN
Method in brief: as §1

[9] = test system: K562 (human leukemia cells); assay: MTT cancer cell growth inhibition; format: cell-based; details: MTT, 72 hours incubation, K562 cells, read-out: GI50 K562
Method in brief: as §1

[10] = test system: SGC-7901 (human gastric cancer cells); assay: MTT cancer cell growth inhibition; format: cell-based; details: MTT, 72 hours incubation, SGC-7901 cells, read-out: GI50 SGC-7901
Method in brief: as §1

[11] = test system: lncap (prostate cancer cells); assay: MTT cancer cell growth inhibition; format: cell-based; details: MTT, 72 hours incubation, read-out: GI50 lnca
Method in brief: as §1

[12] = test system: DU145 (human prostate cancer cells); assay: MTT cancer cell growth inhibition; format: cell-based; details: MTT, 72 hours incubation, read-out: GI50 Du1
Method in brief: as §1

[13] = test system: Huh-7 (human hepatoma cells); assay: MTT cancer cell growth inhibition; format: cell-based; details: MTT, 72 hours incubation, Huh-7 cells, read-out: GI50 Huh-7
Method in brief: as §1

[14] = test system: H1975 (non-small cell lung adenocarcinoma); assay: MTT cancer cell growth inhibition; format: cell-based; details: MTT, 72 hours incubation, H1975 cells, read-out: GI50 H1975
Method in brief: as §1

[15] = test system: MOLT-4 (human acute lymphoblastic leukemia cells); assay: MTT cancer cell growth inhibition; format: cell-based; details: MTT, 72 hours incubation, read-out: GI50 Mol
Method in brief: as §1

[16] = test system: BGC-823 (human gastric cancer cells); assay: MTT cancer cell growth inhibition; format: cell-based; details: MTT, 72 hours incubation, read-out: GI50 BG
Method in brief: as §1

[17] = test system: KBM-5 (human chronic myelogenous leukemia); assay: MTT cancer cell growth inhibition; format: cell-based; details: MTT, 72 hours incubation, KBM-5 cells, read-out: GI50 KBM-5
Method in brief: as §1

[18] = test system: MCF-7 (human breast cancer cells); assay: MTT cancer cell growth inhibition; format: cell-based; details: 72 hours incubation, read-out: GI50 MCF
Method in brief: as §1

[19] = test system: KBM5-T315I (human chronic myelogenous leukemia); assay: MTT cancer cell growth inhibition; format: cell-based; details: MTT, 72 hours incubation, KBM5-T315I cells, read-out: GI50 KBM5-T315I
Method in brief: as §1

[20] = test system: Bel-7402 (human hepatoma cells); assay: MTT cancer cell growth inhibition; format: cell-based; details: MTT, 72 hours incubation, Bel-7402 cells, read-out: GI50 Bel-7402
Method in brief: as §1

[21] = test system: HCC827 (human non-small cell lung cancer cells); assay: MTT cancer cell growth inhibition; format: cell-based; details: MTT, 72 hours incubation, HCC827 cells, read-out: GI50 HCC827
Method in brief: as §1

[22] = Homo sapiens, MDA-MB-231, 72 h, read-out: GI50 MDA-MB-231, MTT, 72 hours incubation, MDA-MB-231 cells

Structure (SMILES)	IC50 [1] [nM]	GI50 ([2]; Homo sapiens, HT-1080, 72 h) [nM]	GI50 ([3]; Homo sapiens, HeLa, 72 h) [nM]	GI50 [4, 22] [nM]	GI50 ([5]; Homo sapiens, 72 h) [nM]	GI50 ([6]; Homo sapiens, U-937, 72 h) [nM]	GI50 ([7]; Homo sapiens, A549, 72 h) [nM]	GI50 ([8]; Homo sapiens, PANC-1, 72 h) [nM]	GI50 ([9]; Homo sapiens, K562, 72 h) [nM]	GI50 ([10]; Homo sapiens, SGC-7901, 72 h) [nM]	GI50 ([11]; Homo sapiens, LNCaP, 72 h) [nM]	GI50 ([12]; Homo sapiens, DU-145, 72 h) [nM]	GI50 ([13]; Homo sapiens, Huh-7, 72 h) [nM]	GI50 ([14]; Homo sapiens, NCI-H1975, 72 h) [nM]	GI50 ([15]; Homo sapiens, MOLT-4, 72 h) [nM]	GI50 ([16]; Homo sapiens, BGC-823, 72 h) [nM]	GI50 ([17]; Homo sapiens, KBM5, 72 h) [nM]	GI50 ([19]; Homo sapiens, 72 h) [nM]	GI50 ([20]; Homo sapiens, Bel-7402, 72 h) [nM]	GI50 ([21]; Homo sapiens, HCC827, 72 h) [nM]	other results
C/C=C1\NC(=O)c2nc(F)cc(n2)CNC(=O)C[C@@H](/C=C/CCSC(C)=O)OC(=O)[C@H](C(C)C)NC1=O [Compound 98]	19	–	–	–	–	–	–	–	–	–	–	–	–	–	–	–	–	–	–	–	GI50 [2]: 80 nM; GI50 [3]: 50 nM; GI50 ([4]; read-out: GI50 MDA-MB-231, MTT, 72 hours incubation, MDA-MB-231 cells): 37 nM; GI50 [5]: 21 nM; GI50 [6]: 30 nM; GI50 [7]: 600 nM; GI50 [8]: 80 nM; GI50 [9]: 37 nM; GI50 [10]: 36 nM; GI50 [11]: 20 nM; GI50 [12]: 40 nM; GI50 [13]: 28 nM; GI50 [14]: 81 nM; GI50 [15]: 20 nM; GI50 [16]: 50 nM; GI50 [17]: 29 nM; GI50 [18]: 30 nM; GI50 [19]: 58 nM; GI50 [20]: 43 nM; GI50 [21]: 35 nM
C/C=C1\NC(=O)c2nc(ccc2F)CNC(=O)C[C@@H](/C=C/CCSC=O)OC(=O)[C@H](C(C)C)NC1=O [Example 51]	52	70	80	29	65	60	40	70	46	45	20	40	29	63	20	60	83	77	72	72	GI50 ([18]; Homo sapiens, MCF7, 72 h): 70 nM
C/C=C1\NC(=O)c2cc(F)cc(n2)CNC(=O)C[C@@H](/C=C/CCSC(=O)CCCC)OC(=O)[C@H](C(C)C)NC1=O [Compound 40]	53	70	70	35	71	40	40	70	41	45	30	40	35	43	30	70	79	55	74	74	GI50 ([18]; Homo sapiens, MCF7, 72 h): 50 nM
C/C=C1\NC(=O)c2cc(SC)cc(n2)CNC(=O)C[C@@H](/C=C/CCSC(=O)CCCCCC)OC(=O)[C@H](C(C)C)NC1=O [Compound 151]	24	–	–	37	46	–	–	–	67	36	–	–	35	58	–	–	31	22	26	38	GI50 ([2]; Homo sapiens, HT-1080, 72 h, HT1080 cells): 90 nM; GI50 ([3]; Homo sapiens, HeLa, 72 h, Hela cells): 70 nM; GI50 ([6]; Homo sapiens, U-937, 72 h, U937 cells): 40 nM; GI50 ([7]; Homo sapiens, A549, 72 h, A549 cells): 40 nM; GI50 ([8]; Homo sapiens, PANC-1, 72 h, PANC-1 cells): 40 nM; GI50 ([11]; Homo sapiens, LNCaP, 72 h, lncap cells): 70 nM; GI50 ([12]; Homo sapiens, DU-145, 72 h, DU145 cells): 40 nM; GI50 ([15]; Homo sapiens, MOLT-4, 72 h, MOLT-4 cells): 90 nM; GI50 ([16]; Homo sapiens, BGC-823, 72 h, BGC-823 cells): 40 nM; GI50 ([18]; Homo sapiens, MCF7, 72 h, MCF-7 cells): 40 nM
C/C=C1\NC(=O)c2cccc(n2)CNC(=O)C[C@@H](/C=C/CCSC(C)=O)OC(=O)[C@H](CCCCN)NC1=O [Compound 15]	47	38700	15700	91	29	1120	2300	2580	26	53	400	480	73	38	19700	1220	95	16	86	51	GI50 ([18]; Homo sapiens, MCF7, 72 h): 19800 nM
